Here are results for four compounds from ChEMBL document CHEMBL1134423, “Synthesis and acetylcholinesterase inhibition of 5-desamino huperzine A derivatives” (Bioorg Med Chem Lett, 2001).

Test [1] has as its target T1, Acetylcholinesterase (Rattus norvegicus, UniProt P37136).
T1 sequence (P37136 whole entry): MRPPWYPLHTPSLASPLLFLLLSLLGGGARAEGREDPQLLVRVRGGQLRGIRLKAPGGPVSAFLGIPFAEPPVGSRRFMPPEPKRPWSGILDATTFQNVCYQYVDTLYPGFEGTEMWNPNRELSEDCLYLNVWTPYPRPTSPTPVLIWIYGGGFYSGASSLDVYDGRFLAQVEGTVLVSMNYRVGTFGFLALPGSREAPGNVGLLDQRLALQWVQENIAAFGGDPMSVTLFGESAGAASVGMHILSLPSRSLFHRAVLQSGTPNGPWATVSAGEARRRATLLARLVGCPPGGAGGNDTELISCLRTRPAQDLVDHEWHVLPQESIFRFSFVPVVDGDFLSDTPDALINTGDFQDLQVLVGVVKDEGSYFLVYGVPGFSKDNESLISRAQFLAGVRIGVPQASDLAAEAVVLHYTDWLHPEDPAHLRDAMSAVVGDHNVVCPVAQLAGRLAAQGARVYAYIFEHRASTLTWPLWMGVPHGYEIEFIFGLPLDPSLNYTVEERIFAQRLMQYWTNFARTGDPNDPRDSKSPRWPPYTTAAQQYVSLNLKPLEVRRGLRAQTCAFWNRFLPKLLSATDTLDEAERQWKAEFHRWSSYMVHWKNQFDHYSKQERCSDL
Nature of the test: Compound was tested for its ability to inhibit acetylcholinesterase (AChE) in rat brain. It counts as tissue-based.

The target in test [2] is T1, Acetylcholinesterase.

As to `CC1=CC2Cc3nc(O)ccc3C(C1)C2=O` (configuration not stated), at Acetylcholinesterase [1], the IC50 (as a rule, the concentration that inhibits the measured activity by half) was greater than 500 µM; the Ki (usually the dissociation constant of the complex between target and ligand, obtained from inhibition or displacement) is greater than 500 µM. `C/C=C1\[C@H]2C=C(C)C[C@]1(N)c1ccc(=O)[nH]c1C2` [HUPERZINE A] gave an inhibition constant Ki at Acetylcholinesterase [2] of 0.024 µM. On Acetylcholinesterase [1], `C/C=C1/C2C=C(C)CC1c1ccc(=O)[nH]c1C2` (configuration not stated) came in with an IC50 of 55.5 µM and an inhibition constant (Ki) of 12.3 µM. For `C/C=C1\C2C=C(C)CC1c1ccc(O)nc1C2` (configuration not stated) the same measures were 12.8 µM and 2 µM.
